Experiments:
Colon26 cells = assay: In vitro cytotoxicity (PDT) MTT assay; assay type: cell-based; conditions: variable drug concentrations, fixed light dose 1.0 J/cm^2 (FIG. 8A)
Experimental: Drug concentrations were increased 10× (0.25 to 32.0 μM) and a significant cytotoxicity was observed only at high concentrations at the highest light dose.
Assessment of cell growth following treatment with compound solutions alone and after light exposure was determined by a colorimetric assay that measured the reduction of yellow 3-(4,5-dimethythiazol-2-yl)-2,5-diphenyl tetrazolium bromide (MTT) by mitochondrial succinate dehydrogenase.
Briefly cells were plated into 96 well plates, allowed to adhere to the plate and are treated with a range of compound concentrations for various lengths of time. The light source consisted of dye lasers (375; Spectra-Physics, Mt. View, Calif.) pumped by an argon-ion laser (either 171 or 2080; Spectra-Physics). The dye lasers were tuned to the appropriate wavelength for the compound being tested. Total light doses were ranged from 0.125 to 1.0 J/cm^2 at a fluence rate of 3.2 mW/cm^2. At 48 hours post PDT treatment, MTT was added. The solubilized formazan product was measured spectro-photometrically using a BIOTEK EL-800 plate reader. Data were processed using GEN5 software. A medium blank value was subtracted from all samples and Optical Density (O.D.) values of treated cells were divided by mean O.D. value of untreated cells for each light dose).
Colon26 cells were plated and allowed to adhere for 4 hours, then the photosensitizer was added and incubated at 37° C. for 24 hours. Plates were irradiated with 789 nm light from a dye laser at 3.2 mW/cm^2 for a total dose of 0.25 to 1.0 Joule/cm^2.

[1] = Absorbance (UV-VIS) in methanol; assay type: physicochemical; conditions: ε665 for 2 (peak 660 nm), ε785 for 4 (peak 785 nm)
Experimental: Absorbance of 2 and 4 was measured using different concentrations in methanol on UV-VIS and indicates far-red peaks at 660 nm and 785 nm, with extinction coefficients ε665=47,500 L·mol^−1 cm^−1 and ε785=18,100 L·mol^−1 cm^−1 respectively.
Chemistry Methods: All reactions were carried out in heat gun-dried glassware under an atmosphere of nitrogen and magnetic stirring. Thin layer chromatography (TLC) was done on pre-coated silica gel sheets (layer thickness 0.2 mm). Column chromatography was performed either using silica gel 60 (70-230 mesh) or neutral alumina grade III. In some cases preparative TLC was used for the purification of compounds. Purity of the compounds was ascertained by TLC and HPLC analysis. All compounds including the intermediates were >95% pure. UV-visible spectra were recorded on FT UV-visible spectrophotometer using methanol as a solvent. Mass spectrometry analyses were performed at the Mass Spectrometry Facility, University at Buffalo, N.Y. Compounds 1 and 2 were synthesized by following the methodologies previously described.

[2] = Photobleaching in 17% bovine calf serum; assay type: physicochemical; conditions: 17% BCS, dye laser 75 mW/cm^2, 785 nm for 4
Experimental: Photobleaching was performed in quartz cuvettes on a 5 μM solution of 2 and a 25 μM solution of 4 in 17% BCS. The higher molarity was chosen to approximate the absorbance of 2 at 5 μM. A dye laser was used at dose rate 75 mW/cm^2, and excitation wavelength for 2 was 660 nm and for 4 was 785 nm.
In photodynamic therapy, photobleaching is the photochemical alteration of a chromophore or a fluorophore molecule such that could either permanently is unable to fluoresce or alter its fluorescence characteristics. This is caused by cleaving of the covalent bonds or non-specific reaction between the reactive oxygen species (e.g., singlet oxygen) and the molecule. These […] species formed by conversion of the molecular oxygen present in tumor to singlet oxygen by exposing the photosensitizer with light at an appropriate wavelength. The rate of photobleaching of the PS should depend (a) availability of oxygen, (b) photostability of PS and finally (c) the singlet oxygen (or other reactive oxygen species) producing ability of the PS.
To investigate the photobleaching characteristics of the photosensitizers, compounds 2 and 4 in equimolar concentrations (5 μM) were taken in quartz cuvettes in 17% bovine calf serum. Dye lasers with appropriate wavelength (2: 660 nm and 4: 785 nm) were used at a dose rate of 75 mW/cm^2. Both the compounds in formulated forms were irradiated with light and the absorption spectra at their long wavelength absorptions were measured with time. The decay in absorbance was plotted against the time of light exposure.

[3] = Nanosecond laser flash transient absorption of triplet excited state in PhCN; assay type: physicochemical
Experimental: The decay time profiles at 580 nm in (b) argon- and (c) air-saturated PhCN. The single-exponential fitting curves are shown as gray lines.
Singlet oxygen is generated by energy transfer from the triplet excited state of 4 to molecular oxygen (O2). […] The decay profile of T-T absorption was obeyed with the single exponential curve (FIG. 6b). The lifetime was determined to be τ=38 μs. […] The energy transfer rate constant was determined to be 1.4×10^9M^−1 s^−1, indicating the efficient energy transfer occurred between the triplet excited state of 4 and O2 to for singlet oxygen generation.
Instrumentation: Measurement of fluorescence quantum yields were carried out on a Hamamatsu C9920-0X(PMA-12) U6039-05 fluorescence spectrofluorometer. Femtosecond laser flash photolysis was conducted using a Clark-MXR 2010 laser system and an optical detection system provided by Ultrafast Systems (Helios). The source for the pump and probe pulses were derived from the fundamental output of Clark laser system (775 nm, 1 mJ pulse-1 and fwhm=150 fs) at a repetition rate of 1 kHz. A second harmonic generator introduced in the path of the laser beam provided […] laser pulses for excitation. A 95% of the fundamental output of the laser was used to generate the second harmonic, while 5% of the deflected output was used for white light generation. Prior to generating the probe continuum, the laser pulse was fed to a delay line that provided an experimental time window of 1.6 ns with a maximum step resolution of 7 fs. The pump beam was attenuated at 5 μJ pulse-1 with a spot size of 2 mm diameter at the sample cell where it was merged with the white probe pulse in a close angle (<10°). […] The photodynamics were monitored by continuous exposure to a xenon lamp for visible region and halogen lamp for near-IR region as a probe light and a photomultiplier tube (Hamamatsu 2949) as a detector.

extinction coefficient at far-red absorbance peak [1]: 18,100 L·mol^−1 cm^−1 | photobleaching (in words) [2]: negligible photobleaching | energy transfer rate constant, triplet excited state to O2 ([3]; PhCN): 1.4e+09 M⁻¹ s⁻¹ | triplet decay rate constant in the presence of dissolved O2 ([3]; air-saturated PhCN): 2.3e+06 s⁻¹ | triplet excited state lifetime τ ([3]; deaerated (argon-saturated) PhCN, T-T absorption decay at 580 nm): 38 μs
Substance: methyl 3-[1′-(m-iodobenzyloxy)ethyl]-3-devinyl-13^3-keto-13^2-methoxycyclohexene [Compound 4]
in vitro cytotoxicity (in words) (Colon26 cells): did not produce any significant cell kill

Source: patent publication US20220194952A1, “TETRAPYRROLIC CONJUGATES AND USES THEREOF FOR IMAGING” (Health Research, Inc., priority 2019, published 2022)
